Source: US10231954B2, “Neurodegenerative therapies” (LYTIX BIOPHARMA AS, priority 2014, dated 2019)

What was measured:
Format in all cases: biochemical
Details in all cases: 100 micromolar inhibitor concentration, 100 is no change
JNK1 = JNK1 (Homo sapiens, UniProt P45983); experiment: Kinase profiling JNK1
Excerpt: (§1) Any value less that 25 is considered to be highly significant inhibition.

ROCK 2 = ROCK 2 (Homo sapiens, UniProt O75116); experiment: Kinase profiling ROCK 2
Excerpt: as §1

PKCz = biological target: T1, PKCz (Homo sapiens, UniProt Q05513); experiment: Kinase profiling PKCz
T1 sequence (Q05513 1-592): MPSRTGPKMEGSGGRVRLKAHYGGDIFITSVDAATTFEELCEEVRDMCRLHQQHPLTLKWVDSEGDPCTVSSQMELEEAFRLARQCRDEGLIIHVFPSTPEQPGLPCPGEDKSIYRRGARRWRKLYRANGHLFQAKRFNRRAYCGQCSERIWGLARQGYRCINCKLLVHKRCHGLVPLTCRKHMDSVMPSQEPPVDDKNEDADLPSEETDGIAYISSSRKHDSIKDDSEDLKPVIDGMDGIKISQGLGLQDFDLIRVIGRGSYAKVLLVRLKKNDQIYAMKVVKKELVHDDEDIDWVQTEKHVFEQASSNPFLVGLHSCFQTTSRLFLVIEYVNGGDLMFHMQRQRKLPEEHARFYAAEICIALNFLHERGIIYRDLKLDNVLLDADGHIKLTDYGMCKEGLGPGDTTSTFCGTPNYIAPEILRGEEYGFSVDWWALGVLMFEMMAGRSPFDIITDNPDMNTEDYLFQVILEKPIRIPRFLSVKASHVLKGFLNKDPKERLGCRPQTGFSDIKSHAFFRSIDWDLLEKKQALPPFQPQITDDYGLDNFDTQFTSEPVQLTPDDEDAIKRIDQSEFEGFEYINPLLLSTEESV
Excerpt: as §1

PKD1 = biological target: T2, PKD1 (Homo sapiens, UniProt Q15139); experiment: Kinase profiling PKD1
T2 sequence (Q15139 1-912): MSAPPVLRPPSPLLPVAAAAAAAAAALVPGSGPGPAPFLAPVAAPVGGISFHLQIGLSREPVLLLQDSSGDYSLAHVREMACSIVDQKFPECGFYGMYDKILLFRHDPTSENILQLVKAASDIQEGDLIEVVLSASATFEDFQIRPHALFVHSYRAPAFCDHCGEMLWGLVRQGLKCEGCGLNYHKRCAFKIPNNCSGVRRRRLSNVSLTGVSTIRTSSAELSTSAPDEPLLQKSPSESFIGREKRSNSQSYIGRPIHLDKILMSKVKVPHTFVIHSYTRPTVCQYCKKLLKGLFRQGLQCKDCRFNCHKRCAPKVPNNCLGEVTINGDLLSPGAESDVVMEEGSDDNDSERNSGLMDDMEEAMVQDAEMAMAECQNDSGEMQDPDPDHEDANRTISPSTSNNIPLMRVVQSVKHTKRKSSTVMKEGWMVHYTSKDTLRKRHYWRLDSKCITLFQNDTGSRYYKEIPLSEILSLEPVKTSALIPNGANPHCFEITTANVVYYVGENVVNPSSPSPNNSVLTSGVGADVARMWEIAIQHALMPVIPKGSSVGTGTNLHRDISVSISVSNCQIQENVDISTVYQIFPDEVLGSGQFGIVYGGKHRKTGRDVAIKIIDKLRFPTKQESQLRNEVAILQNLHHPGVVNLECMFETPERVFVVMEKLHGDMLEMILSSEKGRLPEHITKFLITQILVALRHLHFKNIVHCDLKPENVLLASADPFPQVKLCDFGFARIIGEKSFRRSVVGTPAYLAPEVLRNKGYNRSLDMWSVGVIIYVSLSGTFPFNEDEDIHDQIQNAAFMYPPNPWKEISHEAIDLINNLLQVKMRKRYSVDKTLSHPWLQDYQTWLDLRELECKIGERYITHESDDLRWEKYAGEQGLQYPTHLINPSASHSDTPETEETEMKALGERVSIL
Excerpt: as §1

CAMK1 = CAMK1 (Homo sapiens, UniProt Q14012); experiment: Kinase profiling CAMK1
CAMK1, sequence (Q14012 whole entry, species assumed): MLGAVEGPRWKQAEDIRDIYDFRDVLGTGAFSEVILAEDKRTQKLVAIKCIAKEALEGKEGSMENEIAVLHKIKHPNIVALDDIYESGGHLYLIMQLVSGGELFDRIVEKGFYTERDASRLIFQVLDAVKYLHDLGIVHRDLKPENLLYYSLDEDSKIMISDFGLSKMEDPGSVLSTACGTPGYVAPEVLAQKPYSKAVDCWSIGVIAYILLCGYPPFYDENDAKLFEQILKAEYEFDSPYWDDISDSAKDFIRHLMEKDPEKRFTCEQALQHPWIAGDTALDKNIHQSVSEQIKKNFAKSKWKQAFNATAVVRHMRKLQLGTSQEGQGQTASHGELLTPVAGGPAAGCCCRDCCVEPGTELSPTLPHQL
Excerpt: as §1

CHK2 = CHK2 (Homo sapiens, UniProt O96017); experiment: Kinase profiling CHK2
CHK2, sequence (O96017 whole entry, species assumed): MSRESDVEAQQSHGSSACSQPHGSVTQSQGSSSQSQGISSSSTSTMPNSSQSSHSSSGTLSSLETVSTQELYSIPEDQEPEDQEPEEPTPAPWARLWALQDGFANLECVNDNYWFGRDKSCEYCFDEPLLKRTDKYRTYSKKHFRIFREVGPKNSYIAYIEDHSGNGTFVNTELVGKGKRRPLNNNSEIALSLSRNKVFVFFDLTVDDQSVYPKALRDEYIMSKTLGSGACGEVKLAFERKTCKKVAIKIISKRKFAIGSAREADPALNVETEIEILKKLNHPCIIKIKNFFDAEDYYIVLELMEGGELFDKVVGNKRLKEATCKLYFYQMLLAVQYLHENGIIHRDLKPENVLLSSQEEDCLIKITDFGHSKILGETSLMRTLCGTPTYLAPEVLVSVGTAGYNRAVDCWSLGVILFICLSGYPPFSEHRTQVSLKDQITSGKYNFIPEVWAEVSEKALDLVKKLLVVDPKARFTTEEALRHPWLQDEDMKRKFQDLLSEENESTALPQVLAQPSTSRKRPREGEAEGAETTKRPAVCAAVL
Excerpt: as §1

PLK1 = PLK1 (Homo sapiens, UniProt P53350); experiment: Kinase profiling PLK1
PLK1, sequence (P53350 whole entry, species assumed): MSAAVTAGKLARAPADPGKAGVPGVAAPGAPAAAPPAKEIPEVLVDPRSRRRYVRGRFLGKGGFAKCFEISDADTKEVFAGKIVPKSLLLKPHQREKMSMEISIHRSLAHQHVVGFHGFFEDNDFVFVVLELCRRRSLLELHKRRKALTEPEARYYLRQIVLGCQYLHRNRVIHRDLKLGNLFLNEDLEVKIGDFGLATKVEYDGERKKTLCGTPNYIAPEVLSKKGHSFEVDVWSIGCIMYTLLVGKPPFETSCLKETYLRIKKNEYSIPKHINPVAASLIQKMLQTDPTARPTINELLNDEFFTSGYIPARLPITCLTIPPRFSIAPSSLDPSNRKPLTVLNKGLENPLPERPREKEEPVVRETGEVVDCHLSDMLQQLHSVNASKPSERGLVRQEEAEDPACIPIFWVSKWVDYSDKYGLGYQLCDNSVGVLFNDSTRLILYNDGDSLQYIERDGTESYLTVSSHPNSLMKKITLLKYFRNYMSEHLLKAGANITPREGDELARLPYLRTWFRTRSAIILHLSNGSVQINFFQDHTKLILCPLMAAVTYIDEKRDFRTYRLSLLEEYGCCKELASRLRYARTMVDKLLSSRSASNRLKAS
Excerpt: as §1

TBK1 = biological target: T3, TBK1 (Homo sapiens, UniProt Q9UHD2); experiment: Kinase profiling TBK1
T3 sequence (Q9UHD2 1-729): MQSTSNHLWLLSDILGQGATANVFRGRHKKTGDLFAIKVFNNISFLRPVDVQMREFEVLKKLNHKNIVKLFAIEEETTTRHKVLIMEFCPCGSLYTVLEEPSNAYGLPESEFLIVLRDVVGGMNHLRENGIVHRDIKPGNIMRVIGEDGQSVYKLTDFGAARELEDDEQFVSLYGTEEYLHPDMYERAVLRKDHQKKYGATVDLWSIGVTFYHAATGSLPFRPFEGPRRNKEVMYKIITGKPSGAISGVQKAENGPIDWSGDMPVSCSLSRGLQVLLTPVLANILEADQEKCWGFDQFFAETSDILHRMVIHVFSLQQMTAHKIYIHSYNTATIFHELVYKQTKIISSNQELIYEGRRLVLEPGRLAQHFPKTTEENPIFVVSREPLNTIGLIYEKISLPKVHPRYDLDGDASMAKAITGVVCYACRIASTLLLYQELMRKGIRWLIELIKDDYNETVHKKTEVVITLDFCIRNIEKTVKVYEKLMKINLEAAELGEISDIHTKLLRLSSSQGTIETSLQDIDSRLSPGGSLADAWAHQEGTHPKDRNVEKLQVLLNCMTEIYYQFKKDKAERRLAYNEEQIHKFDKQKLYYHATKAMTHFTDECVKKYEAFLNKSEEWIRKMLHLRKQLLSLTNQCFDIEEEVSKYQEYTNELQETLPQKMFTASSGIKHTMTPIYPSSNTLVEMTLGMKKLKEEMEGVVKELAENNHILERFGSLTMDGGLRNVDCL
Excerpt: as §1

MLK3 = MLK3 (Homo sapiens, UniProt Q16584); experiment: Kinase profiling MLK3
MLK3, sequence (Q16584 whole entry, species assumed): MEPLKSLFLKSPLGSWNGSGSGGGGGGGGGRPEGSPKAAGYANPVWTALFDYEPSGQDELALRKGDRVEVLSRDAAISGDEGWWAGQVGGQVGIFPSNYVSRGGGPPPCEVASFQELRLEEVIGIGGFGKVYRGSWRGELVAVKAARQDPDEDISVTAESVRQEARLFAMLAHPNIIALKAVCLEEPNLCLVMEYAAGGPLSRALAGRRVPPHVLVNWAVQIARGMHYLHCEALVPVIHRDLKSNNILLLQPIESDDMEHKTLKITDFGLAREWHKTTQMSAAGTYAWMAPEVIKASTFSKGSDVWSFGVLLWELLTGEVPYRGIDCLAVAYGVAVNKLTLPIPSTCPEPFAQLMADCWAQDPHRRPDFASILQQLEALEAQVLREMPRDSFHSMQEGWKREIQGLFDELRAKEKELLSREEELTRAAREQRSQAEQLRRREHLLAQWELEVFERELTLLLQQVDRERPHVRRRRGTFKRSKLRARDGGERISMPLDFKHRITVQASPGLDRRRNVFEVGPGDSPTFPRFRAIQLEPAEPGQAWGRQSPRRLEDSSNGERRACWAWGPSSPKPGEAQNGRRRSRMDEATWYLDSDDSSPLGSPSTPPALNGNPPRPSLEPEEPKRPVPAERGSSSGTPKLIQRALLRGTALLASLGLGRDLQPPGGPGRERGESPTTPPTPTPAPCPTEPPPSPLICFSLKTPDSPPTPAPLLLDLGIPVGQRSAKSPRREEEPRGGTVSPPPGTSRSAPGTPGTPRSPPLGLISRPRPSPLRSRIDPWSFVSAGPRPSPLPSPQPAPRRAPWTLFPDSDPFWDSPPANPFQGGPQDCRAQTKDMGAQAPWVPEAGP
Excerpt: as §1

JNK1, sequence (P45983 whole entry, species assumed): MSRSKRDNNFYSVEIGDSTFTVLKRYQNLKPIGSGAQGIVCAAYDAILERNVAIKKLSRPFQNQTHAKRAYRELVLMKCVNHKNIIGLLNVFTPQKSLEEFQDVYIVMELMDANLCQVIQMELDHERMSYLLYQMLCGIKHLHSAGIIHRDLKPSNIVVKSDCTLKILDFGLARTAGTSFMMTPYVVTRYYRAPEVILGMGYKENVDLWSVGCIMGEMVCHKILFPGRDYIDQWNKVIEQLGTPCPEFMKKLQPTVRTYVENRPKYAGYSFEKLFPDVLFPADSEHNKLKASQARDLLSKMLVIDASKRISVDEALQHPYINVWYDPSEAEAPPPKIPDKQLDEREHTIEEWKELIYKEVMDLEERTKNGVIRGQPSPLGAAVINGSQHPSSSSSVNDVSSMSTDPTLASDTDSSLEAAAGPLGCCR
ROCK 2, sequence (O75116 whole entry, species assumed): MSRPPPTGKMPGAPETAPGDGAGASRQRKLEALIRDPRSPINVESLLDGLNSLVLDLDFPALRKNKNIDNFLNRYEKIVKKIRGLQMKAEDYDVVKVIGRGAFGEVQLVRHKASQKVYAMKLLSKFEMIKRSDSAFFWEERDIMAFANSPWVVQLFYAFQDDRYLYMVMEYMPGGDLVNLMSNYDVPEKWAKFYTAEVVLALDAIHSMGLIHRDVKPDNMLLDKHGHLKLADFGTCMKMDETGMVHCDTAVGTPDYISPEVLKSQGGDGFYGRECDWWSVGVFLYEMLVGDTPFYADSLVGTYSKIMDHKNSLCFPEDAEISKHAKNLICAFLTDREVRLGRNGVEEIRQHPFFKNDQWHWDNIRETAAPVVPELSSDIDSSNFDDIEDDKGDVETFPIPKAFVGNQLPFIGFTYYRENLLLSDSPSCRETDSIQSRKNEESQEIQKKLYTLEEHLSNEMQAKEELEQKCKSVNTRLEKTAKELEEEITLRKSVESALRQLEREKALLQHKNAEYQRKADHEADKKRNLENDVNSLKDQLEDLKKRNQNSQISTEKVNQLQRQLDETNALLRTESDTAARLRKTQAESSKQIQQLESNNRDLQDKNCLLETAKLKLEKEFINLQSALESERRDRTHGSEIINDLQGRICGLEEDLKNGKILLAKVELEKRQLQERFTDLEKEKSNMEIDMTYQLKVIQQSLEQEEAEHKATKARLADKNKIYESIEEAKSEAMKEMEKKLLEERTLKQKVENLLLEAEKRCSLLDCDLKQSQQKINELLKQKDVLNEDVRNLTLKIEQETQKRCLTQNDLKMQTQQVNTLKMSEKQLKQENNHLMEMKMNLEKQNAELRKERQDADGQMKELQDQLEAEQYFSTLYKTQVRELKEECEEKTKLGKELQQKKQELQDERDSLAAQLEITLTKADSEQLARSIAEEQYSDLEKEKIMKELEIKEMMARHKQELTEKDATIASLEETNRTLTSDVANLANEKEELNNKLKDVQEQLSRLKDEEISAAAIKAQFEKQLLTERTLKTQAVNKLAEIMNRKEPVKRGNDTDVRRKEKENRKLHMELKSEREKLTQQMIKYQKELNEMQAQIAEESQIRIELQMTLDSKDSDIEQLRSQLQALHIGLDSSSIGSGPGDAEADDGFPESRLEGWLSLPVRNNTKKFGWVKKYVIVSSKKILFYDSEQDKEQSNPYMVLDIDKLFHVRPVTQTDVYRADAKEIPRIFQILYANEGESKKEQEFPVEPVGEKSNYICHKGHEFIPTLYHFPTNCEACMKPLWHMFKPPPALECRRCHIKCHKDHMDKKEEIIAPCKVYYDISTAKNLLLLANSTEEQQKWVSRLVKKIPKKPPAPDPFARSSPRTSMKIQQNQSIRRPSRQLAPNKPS

Row | Structure (SMILES) | residual kinase activity, JNK1 (JNK1) | residual kinase activity, ROCK 2 (ROCK 2) | residual kinase activity, PKCz (PKCz) | residual kinase activity, PKD1 (PKD1) | residual kinase activity, CAMK1 (CAMK1) | residual kinase activity, CHK2 (CHK2) | residual kinase activity, PLK1 (PLK1) | residual kinase activity, TBK1 (TBK1) | residual kinase activity, MLK3 (MLK3) | remaining activity at 100 µM (JNK1; read-out: residual kinase activity, JNK1) [%] | remaining activity at 100 µM (ROCK 2; read-out: residual kinase activity, ROCK 2) [%] | remaining activity at 100 µM (PKCz; read-out: residual kinase activity, PKCz) [%] | remaining activity at 100 µM (PKD1; read-out: residual kinase activity, PKD1) [%] | remaining activity at 100 µM (CAMK1; read-out: residual kinase activity, CAMK1) [%] | remaining activity at 100 µM (CHK2; read-out: residual kinase activity, CHK2) [%] | remaining activity at 100 µM (PLK1; read-out: residual kinase activity, PLK1) [%] | remaining activity at 100 µM (TBK1; read-out: residual kinase activity, TBK1) [%] | remaining activity at 100 µM (MLK3; read-out: residual kinase activity, MLK3) [%]
1 | CC(=O)Nc1nc2cc(C)ccc2s1 [Compound 03-76] | 97 | 79 | 101 | 89 | 90 | 65 | 90 | 78 | 35 |  |  |  |  |  |  |  |  | 
2 | CC(=O)Nc1nc2cc(F)ccc2s1 [Compound 03-77] |  |  |  |  |  |  |  |  |  | 80 | 37 | 110 | 66 | 106 | 63 | 78 | 74 | 44
3 | O=C(Nc1nc2ccc(O)cc2s1)c1ccncc1 [Compound 08-42] | 99 | 43 | 76 | 63 | 68 | 22 | 74 | 61 | 30 |  |  |  |  |  |  |  |  | 
4 | O=C(Nc1nc2ccc(O)cc2s1)c1cccnc1 [Compound 08-44] | 102 | 42 | 81 | 54 | 42 | 16 | 63 | 81 | 26 |  |  |  |  |  |  |  |  | 
